Results taken from ChEMBL document CHEMBL3272024, “(Acylaryloxy)acetic acid diuretics. 1. (2-Alkyl- and 2,2-dialkyl-1-oxo-5-indanyloxy)acetic acids” (J Med Chem, 1977).

Columns and labels:
[1] = tested on: Pan troglodytes; assay: Ratio of change in urate excretion to change in inulin excretion in chimpanzee in urine at 5 mg/kg, po; type: functional
[2] = tested on: Pan troglodytes; assay: Natriuretic activity in chimpanzee assessed as change sodium level in urine measured per min at 5 mg/kg, po; type: functional
[3] = tested on: Canis familiaris; assay: Diuretic activity in dog assessed as potassium level in urine collected for 2 hrs at 5 mg/kg, iv over a period of 5 mins (reference value: 5 to 30 microEq); type: functional, Canis lupus familiaris
[4] = tested on: Canis familiaris; assay: Diuretic activity in dog assessed as urine volume collected for 2 hrs at 5 mg/kg, iv over a period of 5 mins (reference value: 1 to 2 mL); type: functional, Canis lupus familiaris
[5] = tested on: Canis familiaris; assay: Diuretic activity in dog assessed as sodium level in urine collected for 2 hrs at 5 mg/kg, iv over a period of 5 mins (reference value: 5 to 30 microEq); type: functional, Canis lupus familiaris
[6] = Acute toxicity in iv dosed mouse; type: organism-based; conditions: in vivo
[7] = tested on: Canis familiaris; assay: Diuretic activity in dog assessed as chloride level in urine collected for 2 hrs at 5 mg/kg, iv over a period of 5 mins (reference value: 1 to 10 microEq); type: functional, Canis lupus familiaris
[8] = tested on: Rattus norvegicus; assay: Natriuretic activity in po dosed Charles River rat assessed as sodium level in urine per cage collected 0.5 hrs interval relative to 2-(3,6,7-trimethyl-1-oxo-2,3-dihydro-1H-inden-5-yloxy)acetic acid; type: functional

Row | Compound | Ratio [1] | Activity [2] | further results
1 | O=C(O)COc1cc2c(c(Cl)c1Cl)C(=O)C(C1CCCCC1)C2 (configuration not stated) | 0.21 | 310 uEq | 
2 | O=C(O)COc1cc2c(c(Cl)c1Cl)C(=O)C1(CCCCC1)C2 | 0.05 | 489 uEq | 
3 | O=C(O)COc1cc2c(c(Cl)c1Cl)C(=O)C(C1CCCC1)C2 (stereo in doubt; 4p) |  |  | Activity [3]: 37 uEq; Ratio ([1]; 5 mg/kg): 0.18; Activity [4]: 2 mL; Activity [5]: 20 uEq; LD50 [6]: 222 mg/kg; Activity [7]: 5 uEq; Activity ([2]; 5 mg/kg): 223 uEq; Ratio [8]: 1.8
4 | CC1(C2CCCC2)Cc2cc(OCC(=O)O)c(Cl)c(Cl)c2C1=O (single isomer, unassigned; enantiomer 2) |  |  | Ratio ([1]; 5 mg/kg): 0.17; Activity ([2]; 5 mg/kg): 268 uEq
5 | O=C(O)COc1cc2c(c(Cl)c1Cl)C(=O)C(C1CCCC1)C2 (single isomer, unassigned; (-)) |  |  | Ratio ([1]; 5 mg/kg): 0.1; Activity ([2]; 5 mg/kg): 292 uEq
6 | CC1(Cc2ccccc2)Cc2cc(OCC(=O)O)c(Cl)c(Cl)c2C1=O (configuration not stated) | 0.18 | 251 uEq | 
7 | CC(C)C1(C)Cc2cc(OCC(=O)O)c(Cl)c(Cl)c2C1=O (single isomer, unassigned; enantiomer 2) |  |  | Ratio ([1]; 5 mg/kg): 0.06; Activity ([2]; 5 mg/kg): 992 uEq
8 | CC(C)C1(C)Cc2cc(OCC(=O)O)c(Cl)c(Cl)c2C1=O (single isomer, unassigned; (+)) |  |  | Ratio ([1]; 5 mg/kg): 0.41; Activity ([2]; 5 mg/kg): 1593 uEq
9 | O=C(O)COc1cc2c(c(Cl)c1Cl)C(=O)C(CC1CCCC1)C2 (configuration not stated) | 0.05 | 105 uEq | 
10 | CCC1C(=O)c2c(cc(OCC(=O)O)c(Cl)c2Cl)C1c1ccccn1 (configuration not stated) | 0.08 | 0 uEq | 
11 | CC1Cc2cc(OCC(=O)O)c(Cl)c(Cl)c2C1=O (configuration not stated) |  |  | LD50 [6]: 354 mg/kg; Ratio [8]: 1
12 | CC1C(=O)c2c(cc(OCC(=O)O)c(Cl)c2Cl)C1c1ccccc1 (configuration not stated) | 0.12 | 64 uEq | 
13 | CCC1Cc2cc(OCc3nnn[nH]3)c(Cl)c(Cl)c2C1=O (configuration not stated) | 0.11 | 28 uEq | 
14 | CC1(C2CCCC2)Cc2cc(OCC(=O)O)c(Cl)c(Cl)c2C1=O (single isomer, unassigned; enantiomer 1) |  |  | Ratio ([1]; 5 mg/kg): 0.1; Activity ([2]; 5 mg/kg): 325 uEq
15 | CC1c2cc(OCc3nnn[nH]3)c(Cl)c(Cl)c2C(=O)C1C1CCCC1 (configuration not stated) | 0.07 | 19 uEq | 
16 | CCCC1Cc2cc(OCC(=O)O)c(Cl)c(Cl)c2C1=O (configuration not stated) | 0.19 |  | 
17 | CC(C)C1C(=O)c2c(cc(OCC(=O)O)c(Cl)c2Cl)C1c1ccccc1 (configuration not stated) | 0.25 | 240 uEq | 
18 | Cc1c(OCC(=O)O)cc2c(c1Cl)C(=O)C(C(C)C)C2 (configuration not stated) | 0.07 | 185 uEq | Activity [3]: 50 uEq; Activity [4]: 3 mL; Activity [5]: 218 uEq; Activity [7]: 204 uEq
19 | CC(C)(C)C1Cc2cc(OCC(=O)O)c(Cl)c(Cl)c2C1=O (configuration not stated) | 0 | 106 uEq | 
20 | O=C1c2c(cc(OCc3nnn[nH]3)c(Cl)c2Cl)CC12CCCCC2 | 0.02 | 0 uEq | 
21 | CCC1(C)Cc2cc(OCC(=O)O)c(Cl)c(Cl)c2C1=O (configuration not stated) | 0.07 | 520 uEq | Activity [3]: 62 uEq; Activity [4]: 4 mL; Activity [5]: 360 uEq; LD50 [6]: 239 mg/kg; Activity [7]: 450 uEq; Ratio [8]: 15
22 | CCC1Cc2cc(OCC(=O)O)c(Cl)c(Cl)c2C1=O (configuration not stated) | 0.09 | 427 uEq | LD50 [6]: 245 mg/kg; Ratio [8]: 2.8
23 | CCC1(C)C(=O)c2c(cc(OCC(=O)O)c(Cl)c2Cl)C1c1ccccc1 (configuration not stated) | 0 | 0 uEq | 
24 | CCC1C(=O)c2c(cc(OCc3nnn[nH]3)c(Cl)c2Cl)C1c1ccccc1 (configuration not stated) | 0.06 | 5 uEq | 

Row | Compound | Ratio [1] | Activity [2] | further results
25 | CC1(C2CCCC2)Cc2cc(OCC(=O)O)c(Cl)c(Cl)c2C1=O (racemic) |  |  | Activity [3]: 48 uEq; Ratio ([1]; 5 mg/kg): 0.2; Activity [4]: 4 mL; Activity [5]: 454 uEq; LD50 [6]: 213 mg/kg; Activity [7]: 478 uEq; Activity ([2]; 5 mg/kg): 425 uEq; Ratio [8]: 5.4
26 | O=C1c2c(cc(OCc3nnn[nH]3)c(Cl)c2Cl)CC1C1CCCC1 (configuration not stated) | 0.18 | 56 uEq | 
27 | CC1(C)C(=O)c2c(cc(OCC(=O)O)c(Cl)c2Cl)C1c1ccccc1 (configuration not stated) | 0.1 | 22 uEq | 
28 | CC(C)C1(C)Cc2cc(OCc3nnn[nH]3)c(Cl)c(Cl)c2C1=O (configuration not stated) | 0.17 | 174 uEq | 
29 | CC(C)C1(C)Cc2cc(OCC(=O)O)c(Cl)c(Cl)c2C1=O (racemic) |  |  | Activity [3]: 35 uEq; Ratio ([1]; 5 mg/kg): 0.03; Activity [4]: 2 mL; Activity [5]: 185 uEq; LD50 [6]: 244 mg/kg; Activity [7]: 218 uEq; Activity ([2]; 5 mg/kg): 506 uEq; Ratio [8]: 53
30 | CC(C)C1Cc2cc(OCc3nnn[nH]3)c(Cl)c(Cl)c2C1=O (configuration not stated) | 0.07 | 42 uEq | 
31 | C=CCC1(C)Cc2cc(OCC(=O)O)c(Cl)c(Cl)c2C1=O (configuration not stated) | 0.01 | 81 uEq | Activity [3]: 37 uEq; Activity [4]: 4 mL; Activity [5]: 175 uEq; Activity [7]: 171 uEq
32 | Cc1c(OCC(=O)O)cc2c(c1C)C(=O)C(C(C)C)C2 (configuration not stated) | 0.15 | 153 uEq | Activity [3]: 15 uEq; Activity [4]: 2 mL; Activity [5]: 154 uEq; Activity [7]: 100 uEq
33 | Cc1c(OCC(=O)O)cc2c(c1Cl)C(=O)C(C)(C1CCCC1)C2 (configuration not stated) | 0.24 | 86 uEq | 
34 | Cc1c(OCC(=O)O)cc2c(c1Cl)C(=O)C(C1CCCC1)C2 (configuration not stated) | 0.14 | 141 uEq | 
35 | O=C(O)COc1cc2c(c(Cl)c1Cl)C(=O)C(C1CCCC1)C2 (single isomer, unassigned; (+)) |  |  | Ratio ([1]; 5 mg/kg): 0.26; Activity ([2]; 5 mg/kg): 300 uEq
36 | Cc1c(OCC(=O)O)cc2c(c1C)C(=O)C(C1CCCC1)C2 (configuration not stated) | 0.43 | 0 uEq | 
37 | CCC1C(=O)c2c(cc(OCC(=O)O)c(Cl)c2Cl)C1c1ccccc1 (configuration not stated) | 0.28 | 223 uEq | 
38 | NS(=O)(=O)c1cc2c(cc1Cl)NCNS2(=O)=O [HYDROCHLOROTHIAZIDE] |  | 144 uEq | Activity [3]: 33 uEq; Activity [4]: 3 mL; Activity [5]: 166 uEq; Activity [7]: 156 uEq
39 | CC12CCCCC1c1cc(OCC(=O)O)c(Cl)c(Cl)c1C2=O (configuration not stated) | 0.39 | 406 uEq | 
40 | CCCC1(CC)Cc2cc(OCC(=O)O)c(Cl)c(Cl)c2C1=O (configuration not stated) | 0.05 | 341 uEq | 
41 | CCCCC1Cc2cc(OCC(=O)O)c(Cl)c(Cl)c2C1=O (configuration not stated) | 0.11 | 126 uEq | 
42 | CC1(C)Cc2cc(OCC(=O)O)c(Cl)c(Cl)c2C1=O | 0.04 | 535 uEq | LD50 [6]: 268 mg/kg; Ratio [8]: 3.9
43 | CCC1C(=O)c2c(cc(OCC(=O)O)c(Cl)c2Cl)C1c1cccnc1 (configuration not stated) | 0.07 | 25 uEq | 
44 | O=C(O)COc1cc2c(c(Cl)c1Cl)C(=O)C1(CCCC1)C2 | 0.11 | 624 uEq | Activity [3]: 47 uEq; Activity [4]: 5 mL; Activity [5]: 330 uEq; Activity [7]: 254 uEq
45 | CCC1(C2CCCC2)Cc2cc(OCC(=O)O)c(Cl)c(Cl)c2C1=O (configuration not stated) | 0.12 | 231 uEq | 
46 | O=C1c2c(cc(OCc3nnn[nH]3)c(Cl)c2Cl)CC12CCCC2 | 0.05 | 0 uEq | 
47 | O=C(O)COc1cc2c(c(Cl)c1Cl)C(=O)C(C1CCCC1)C2c1ccccc1 (configuration not stated) | 0.25 | 22 uEq | 
48 | O=C(O)COc1cc2c(c(Cl)c1Cl)C(=O)C1CCCCC21 (configuration not stated) | 0.2 | 85 uEq | 
